Counter-ions that a name gives are not always drawn. Like-named read-outs stand apart in the source and are kept apart here.
Columns and labels:
Type in all cases: biochemical
[1] = target: T1, recombinant PRL-1 (Homo sapiens, UniProt Q93096); assay: In vitro phosphatase assay (DiFMUP hydrolysis), PRL-1; note: test concentration or dose not given here
T1 construct: 6xHis (N, cleaved yes); made in house; host or cells: E. coli One Shot BL21 Star
T1 sequence (Q93096 1-173): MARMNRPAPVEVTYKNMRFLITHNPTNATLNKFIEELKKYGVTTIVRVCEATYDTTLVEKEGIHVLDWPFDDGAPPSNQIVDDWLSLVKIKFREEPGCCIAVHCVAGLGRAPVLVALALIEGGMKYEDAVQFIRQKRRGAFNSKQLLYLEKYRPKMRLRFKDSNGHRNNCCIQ

[2] = target: T2, recombinant PRL-2 (Homo sapiens, UniProt Q12974); assay: In vitro phosphatase assay (DiFMUP hydrolysis), PRL-2;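 note: PRL-2 activity read as DiFMUP hydrolysis after 20 min at room temperature with drug, enzyme first pre-reduced at 4 °C for 20 min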
T2 construct: 6xHis (N, cleaved yes); made in house; host or cells: E. coli One Shot BL21 Star
T2 sequence (Q12974 1-167): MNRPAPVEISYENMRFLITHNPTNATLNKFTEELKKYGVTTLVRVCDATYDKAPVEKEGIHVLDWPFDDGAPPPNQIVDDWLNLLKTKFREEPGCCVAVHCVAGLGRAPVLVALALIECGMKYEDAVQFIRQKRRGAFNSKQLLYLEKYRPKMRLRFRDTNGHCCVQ
Procedure: Briefly, protein was diluted in reaction buffer and allowed to incubate at 4 °C for 20 min to allow for full reduction of the active site. DiFMUP, drug, and protein were added, and plates were incubated for 20 min at room temperature. Fluorescence intensities were measured on a Cytation 5 plate reader (Biotek) at an EX:360 nm and EM:460 nm. […] Inhibition selectivity for PRLs over a panel of other phosphatases was determined using PhosphataseProfiler (Eurofins, Cat # PP260).

[3] = target: T3, recombinant PRL-3 (Homo sapiens, UniProt O75365); assay: In vitro phosphatase assay (DiFMUP hydrolysis), PRL-3; note: test concentration or dose not given here
T3 construct: 6xHis (N, cleaved yes); made in house; host or cells: E. coli One Shot BL21 Star
T3 sequence (O75365 whole entry): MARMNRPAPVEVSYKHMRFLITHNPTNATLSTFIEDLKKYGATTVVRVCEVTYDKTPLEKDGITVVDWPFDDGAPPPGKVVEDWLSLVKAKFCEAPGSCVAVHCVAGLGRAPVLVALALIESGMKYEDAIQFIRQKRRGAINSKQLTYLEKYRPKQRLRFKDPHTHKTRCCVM

[4] = FDA-approved drug screen, activity compared to DMSO

COc1cnc(NS(=O)(=O)c2ccc(N)cc2)nc1 [Sulfameter]
% Phosphatase Activity (compared to DMSO) PRL-1 [1, 4]: 106% | % Phosphatase Activity (compared to DMSO) PRL-2 [2, 4]: 109% | % Phosphatase Activity (compared to DMSO) PRL-3 [3, 4]: 91%

Cc1cc(C)nc(NS(=O)(=O)c2ccc(N)cc2)n1 [Sulfamethazine]
% Phosphatase Activity (compared to DMSO) PRL-1 [1, 4]: 108% | % Phosphatase Activity (compared to DMSO) PRL-2 [2, 4]: 105% | % Phosphatase Activity (compared to DMSO) PRL-3 [3, 4]: 82%

Cc1nnc(NS(=O)(=O)c2ccc(N)cc2)s1 [Sulfamethizole]
% Phosphatase Activity (compared to DMSO) PRL-1 [1, 4]: 88% | % Phosphatase Activity (compared to DMSO) PRL-2 [2, 4]: 99% | % Phosphatase Activity (compared to DMSO) PRL-3 [3, 4]: 92%

Cc1cc(NS(=O)(=O)c2ccc(N)cc2)no1 [Sulfamethoxazole]
% Phosphatase Activity (compared to DMSO) PRL-1 [1]: 91% | % Phosphatase Activity (compared to DMSO) PRL-2 [2]: 96% | % Phosphatase Activity (compared to DMSO) PRL-3 [3]: 86%

COc1ccc(NS(=O)(=O)c2ccc(N)cc2)nn1 [Sulfamethoxypyridazine]
% Phosphatase Activity (compared to DMSO) PRL-1 [1, 4]: 94% | % Phosphatase Activity (compared to DMSO) PRL-2 [2, 4]: 109% | % Phosphatase Activity (compared to DMSO) PRL-3 [3, 4]: 77%

Nc1ccc(S(=O)(=O)Nc2ccccn2)cc1 [Sulfapyridine]
% Phosphatase Activity (compared to DMSO) PRL-1 [1, 4]: 106% | % Phosphatase Activity (compared to DMSO) PRL-2 [2, 4]: 113% | % Phosphatase Activity (compared to DMSO) PRL-3 [3, 4]: 84%

O=C(O)c1cc(/N=N/c2ccc(S(=O)(=O)Nc3ccccn3)cc2)ccc1O [Sulfasalazine]
% Phosphatase Activity (compared to DMSO) PRL-1 [1, 4]: 67% | % Phosphatase Activity (compared to DMSO) PRL-2 [2, 4]: 50% | % Phosphatase Activity (compared to DMSO) PRL-3 [3, 4]: 59%

Nc1ccc(S(=O)(=O)Nc2nccs2)cc1 [Sulfathiazole]
% Phosphatase Activity (compared to DMSO) PRL-1 [1, 4]: 119% | % Phosphatase Activity (compared to DMSO) PRL-2 [2, 4]: 114% | % Phosphatase Activity (compared to DMSO) PRL-3 [3, 4]: 87%

Cc1noc(NS(=O)(=O)c2ccc(N)cc2)c1C [Sulfisoxazole]
% Phosphatase Activity (compared to DMSO) PRL-1 [1, 4]: 88% | % Phosphatase Activity (compared to DMSO) PRL-2 [2, 4]: 95% | % Phosphatase Activity (compared to DMSO) PRL-3 [3, 4]: 89%

CC1=C(CC(=O)O)c2cc(F)ccc2/C1=C\c1ccc([S+](C)[O-])cc1 (stereo not drawn) [Sulindac]
% Phosphatase Activity (compared to DMSO) PRL-1 [1, 4]: 83% | % Phosphatase Activity (compared to DMSO) PRL-2 [2, 4]: 96% | % Phosphatase Activity (compared to DMSO) PRL-3 [3, 4]: 85%

COc1cc(O)c(C(=O)c2ccccc2)cc1S(=O)(=O)O [Sulisobenzone]
% Phosphatase Activity (compared to DMSO) PRL-1 [1, 4]: 91% | % Phosphatase Activity (compared to DMSO) PRL-2 [2, 4]: 95% | % Phosphatase Activity (compared to DMSO) PRL-3 [3, 4]: 81%

COc1cc(NS(=O)(=O)c2ccc(N)cc2)nc(OC)n1 [Sulphadimethoxine]
% Phosphatase Activity (compared to DMSO) PRL-1 [1, 4]: 92% | % Phosphatase Activity (compared to DMSO) PRL-2 [2, 4]: 94% | % Phosphatase Activity (compared to DMSO) PRL-3 [3, 4]: 83%

CCN1CCCC1CNC(=O)c1cc(S(N)(=O)=O)ccc1OC (stereo not drawn) [Sulpiride]
% Phosphatase Activity (compared to DMSO) PRL-1 [1, 4]: 89% | % Phosphatase Activity (compared to DMSO) PRL-2 [2, 4]: 92% | % Phosphatase Activity (compared to DMSO) PRL-3 [3, 4]: 70%

CNS(=O)(=O)Cc1ccc2[nH]cc(CCN(C)C)c2c1 [Sumatriptan Succinate]
% Phosphatase Activity (compared to DMSO) PRL-1 [1, 4]: 99% | % Phosphatase Activity (compared to DMSO) PRL-2 [2, 4]: 84% | % Phosphatase Activity (compared to DMSO) PRL-3 [3, 4]: 80%

CCN(CC)CCNC(=O)c1c(C)[nH]c(/C=C2\C(=O)Nc3ccc(F)cc32)c1C [Sunitinib Malate]
% Phosphatase Activity (compared to DMSO) PRL-1 [1, 4]: 80% | % Phosphatase Activity (compared to DMSO) PRL-2 [2, 4]: 76% | % Phosphatase Activity (compared to DMSO) PRL-3 [3, 4]: 65%

CCN(CC)CCNC(=O)c1c(C)[nH]c(/C=C2\C(=O)Nc3ccc(F)cc32)c1C [Sunitinib]
% Phosphatase Activity (compared to DMSO) PRL-1 [1, 4]: 67% | % Phosphatase Activity (compared to DMSO) PRL-2 [2, 4]: 42% | % Phosphatase Activity (compared to DMSO) PRL-3 [3, 4]: 77%

CC(C(=O)O)c1ccc(C(=O)c2cccs2)cc1 (stereo not drawn) [Suprofen]
% Phosphatase Activity (compared to DMSO) PRL-1 [1, 4]: 93% | % Phosphatase Activity (compared to DMSO) PRL-2 [2, 4]: 95% | % Phosphatase Activity (compared to DMSO) PRL-3 [3, 4]: 92%

Cc1ccc(-n2nccn2)c(C(=O)N2CCN(c3nc4cc(Cl)ccc4o3)CC[C@H]2C)c1 [Suvorexant (MK-4305)]
% Phosphatase Activity (compared to DMSO) PRL-1 [1, 4]: 86% | % Phosphatase Activity (compared to DMSO) PRL-2 [2, 4]: 78% | % Phosphatase Activity (compared to DMSO) PRL-3 [3, 4]: 89%

CNC(=O)c1ccc2cc([C@@]3(O)CCn4cncc43)ccc2c1 [TAK-700 (Orteronel)]
% Phosphatase Activity (compared to DMSO) PRL-1 [1, 4]: 128% | % Phosphatase Activity (compared to DMSO) PRL-2 [2, 4]: 107% | % Phosphatase Activity (compared to DMSO) PRL-3 [3, 4]: 87%

Cc1cnc(Nc2ccc(OCCN3CCCC3)cc2)nc1Nc1cccc(S(=O)(=O)NC(C)(C)C)c1 [TG101348 (SAR302503)]
% Phosphatase Activity (compared to DMSO) PRL-1 [1, 4]: 97% | % Phosphatase Activity (compared to DMSO) PRL-2 [2, 4]: 96% | % Phosphatase Activity (compared to DMSO) PRL-3 [3, 4]: 95%

Cn1c(COP(=O)(NCCBr)NCCBr)cnc1[N+](=O)[O-] [TH-302]
% Phosphatase Activity (compared to DMSO) PRL-1 [1, 4]: 91% | % Phosphatase Activity (compared to DMSO) PRL-2 [2, 4]: 100% | % Phosphatase Activity (compared to DMSO) PRL-3 [3, 4]: 95%

Cc1[nH]c(/C=C2\C(=O)Nc3ccccc32)c(C)c1CCC(=O)O [TSU-68 (SU6668, Orantinib)]
% Phosphatase Activity (compared to DMSO) PRL-1 [1, 4]: 75% | % Phosphatase Activity (compared to DMSO) PRL-2 [2, 4]: 52% | % Phosphatase Activity (compared to DMSO) PRL-3 [3, 4]: 52%

C=CC[C@@H]1/C=C(\C)C[C@H](C)C[C@H](OC)[C@H]2O[C@@](O)(C(=O)C(=O)N3CCCC[C@H]3C(=O)O[C@H](/C(C)=C/[C@@H]3CC[C@@H](O)[C@H](OC)C3)[C@H](C)[C@@H](O)CC1=O)[C@H](C)C[C@@H]2OC [Tacrolimus (FK506)]
% Phosphatase Activity (compared to DMSO) PRL-1 [1, 4]: 90% | % Phosphatase Activity (compared to DMSO) PRL-2 [2, 4]: 78% | % Phosphatase Activity (compared to DMSO) PRL-3 [3, 4]: 94%

CN1CC(=O)N2[C@H](c3ccc4c(c3)OCO4)c3[nH]c4ccccc4c3C[C@@H]2C1=O [Tadalafil]
% Phosphatase Activity (compared to DMSO) PRL-1 [1, 4]: 109% | % Phosphatase Activity (compared to DMSO) PRL-2 [2, 4]: 97% | % Phosphatase Activity (compared to DMSO) PRL-3 [3, 4]: 82%

CN(C(=O)c1ccc(F)cc1C(F)(F)F)C1CCN(c2nnc(-c3ccnn3C)c3ccccc23)CC1 [Taladegib (LY2940680)]
% Phosphatase Activity (compared to DMSO) PRL-1 [1, 4]: 91% | % Phosphatase Activity (compared to DMSO) PRL-2 [2, 4]: 107% | % Phosphatase Activity (compared to DMSO) PRL-3 [3, 4]: 86%

CC1(C)CCC(C)(C)c2cc(NC(=O)c3ccc(C(=O)O)cc3)ccc21 [Tamibarotene]
% Phosphatase Activity (compared to DMSO) PRL-1 [1, 4]: 93% | % Phosphatase Activity (compared to DMSO) PRL-2 [2, 4]: 80% | % Phosphatase Activity (compared to DMSO) PRL-3 [3, 4]: 73%

CC/C(=C(\c1ccccc1)c1ccc(OCCN(C)C)cc1)c1ccccc1 [Tamoxifen Citrate]
% Phosphatase Activity (compared to DMSO) PRL-1 [1, 4]: 84% | % Phosphatase Activity (compared to DMSO) PRL-2 [2, 4]: 91% | % Phosphatase Activity (compared to DMSO) PRL-3 [3, 4]: 95%

CCOc1ccccc1OCCN[C@H](C)Cc1ccc(OC)c(S(N)(=O)=O)c1 [Tamsulosin]
% Phosphatase Activity (compared to DMSO) PRL-1 [1, 4]: 96% | % Phosphatase Activity (compared to DMSO) PRL-2 [2, 4]: 107% | % Phosphatase Activity (compared to DMSO) PRL-3 [3, 4]: 83%

O=C(NS(=O)(=O)c1ccc(Br)s1)c1ccc(Cl)cc1Cl [Tasisulam]
% Phosphatase Activity (compared to DMSO) PRL-1 [1, 4]: 94% | % Phosphatase Activity (compared to DMSO) PRL-2 [2, 4]: 87% | % Phosphatase Activity (compared to DMSO) PRL-3 [3, 4]: 99%

NCCS(=O)(=O)O [Taurine]
% Phosphatase Activity (compared to DMSO) PRL-1 [1, 4]: 97% | % Phosphatase Activity (compared to DMSO) PRL-2 [2, 4]: 77% | % Phosphatase Activity (compared to DMSO) PRL-3 [3, 4]: 94%

CCOC(=O)c1ccc(C#Cc2ccc3c(c2)C(C)(C)CCS3)nc1 [Tazarotene]
% Phosphatase Activity (compared to DMSO) PRL-1 [1, 4]: 1414% | % Phosphatase Activity (compared to DMSO) PRL-2 [2, 4]: 1439% | % Phosphatase Activity (compared to DMSO) PRL-3 [3, 4]: 148%

C[C@]1(Cn2ccnn2)[C@H](C(=O)O)N2C(=O)C[C@H]2S1(=O)=O [Tazobactam]
% Phosphatase Activity (compared to DMSO) PRL-1 [1, 4]: 102% | % Phosphatase Activity (compared to DMSO) PRL-2 [2, 4]: 103% | % Phosphatase Activity (compared to DMSO) PRL-3 [3, 4]: 86%

Reference: paper PMC8119466, “A screen of FDA-approved drugs identifies inhibitors of protein tyrosine phosphatase 4A3 (PTP4A3 or PRL-3)” (Scientific Reports, 2021)
